Measured values published in patent US20240174670A1, “4-AMINO-6-OXO-PYRIDAZINE DERIVATIVES MODULATING NLRP3” (JANSSEN PHARMACEUTICA NV, priority 2021, published 2024).

How the values were obtained:
[1] = system: TNF; assay: PBMC assay, TNF release after LPS stimulation; format: cell-based; details: human PBMCs, 30 min preincubation, 100 ng/ml LPS for 6 hrs, supernatant, MSD technology
Description: (§1) Peripheral venous blood was collected from healthy individuals and human peripheral blood mononuclear cells (PBMCs) were isolated from blood by Ficoll-Histopaque (Sigma-Aldrich, A0561) density gradient centrifugation. After isolation, PBMCs were stored in liquid nitrogen for later use. Upon thawing, PBMC cell viability was determined in growth medium (RPMI media supplemented with 10% fetal bovine serum, 1% Pen-Strep and 1% L-glutamine). Compounds were spotted in a 1:3 serial dilution in DMSO and diluted to the final concentration in 30 μl medium in 96 well plates (Falcon, 353072). PBMCs were added at a density of 7.5×10^4 cells per well and incubated for 30 min in a 5% CO2 incubator at 37 ° C. LPS stimulation was performed by addition of 100 ng/ml LPS (final concentration, Invivogen, tlrl-smlps) for 6 hrs followed by collection of cellular supernatant and the analysis of IL-1β[…] and TNF cytokines levels (uμ) via MSD technology according to manufacturers' guidelines (MSD, K151A0H).
(§2) IC50 and AC50 values (for IL-1β) and EC50 and AC50 values (TNF) were obtained on compounds of the invention/examples, and the AC50 values are depicted in the following table: […]

[2] = system: IL-1β; assay: PBMC assay, IL-1β release after LPS stimulation; format: cell-based; details: human PBMCs, 30 min preincubation, 100 ng/ml LPS for 6 hrs, supernatant, MSD technology, read-out: IL1β AC50
Description: The activity of a compound according to the present invention can be assessed by in vitro methods.
as §1, §2

## CO[C@@H]1CCN(c2cc(=O)n(CC(=O)Nc3ccc4nncn4c3)nc2C(C)C)C1 [Compound 17]
[1]
  AC50: > 10 µM
[2]
  AC50: 2.9 µM

## COC[C@@H]1CCCN1c1cc(=O)n(CC(=O)Nc2ccc3nncn3c2)nc1C(C)C [Compound 8]
[1]
  AC50: > 10 µM
[2]
  AC50: 5.81 µM

## CC(C)c1nn(CC(=O)Nc2ccc3nncn3c2)c(=O)cc1N1CCC2(C1)CC2(F)F (stereo not drawn) [Compound 58]
[1]
  AC50: > 20 µM
[2]
  AC50: 0.89 µM

## CC(C)c1nn(CC(=O)Nc2ccc3nncn3c2)c(=O)cc1N1CCCC1 [Compound 5, 2-(3-isopropyl-6-oxo-4-pyrrolidin-1-yl-pyridazin-1-yl)-N-([1,2,4]triazolo[4,3-a]pyridin-6-yl)acetamide]
[1]
  AC50: > 10 µM
[2]
  AC50: 0.33 µM

## CC(C)c1nn(CC(=O)Nc2ccc3nncn3c2)c(=O)cc1NC1CC1 [Compound 66]
[1]
  AC50: > 20 µM
[2]
  AC50: > 20 µM

## CC(C)c1nn(CC(=O)Nc2ccc3nncn3c2)c(=O)cc1NC1CCCC1 [Compound 7]
[1]
  AC50: > 10 µM
[2]
  AC50: 4.36 µM

## CC(C)CN(C)c1cc(=O)n(CC(=O)Nc2ccc3nncn3c2)nc1C(C)C [Compound 47]
[1]
  AC50: > 20 µM
[2]
  AC50: 13.8 µM

## CC(C)c1nn(CC(=O)Nc2ccc3nncn3c2)c(=O)cc1N1CC[C@@H]2C[C@@H]2C1 [Compound 33]
[1]
  AC50: > 20 µM
[2]
  AC50: 0.5 µM

## CC(C)c1nn(CC(=O)Nc2ccc3nncn3c2)c(=O)cc1N1CCCC1C(C)C (stereo not drawn) [Compound 20]
[1]
  AC50: > 10 µM
[2]
  AC50: 10.8 µM

## CC(C)c1nn(CC(=O)Nc2ccc3nncn3c2)c(=O)cc1Nc1cc([C@H]2C[C@H]2C)on1 [Compound 43]
[1]
  AC50: > 20 µM
[2]
  AC50: > 20 µM

## CC(C)c1nn(CC(=O)Nc2ccc3nncn3c2)c(=O)cc1N1CCC[C@@H]1C [Compound 18]
[1]
  AC50: > 10 µM
[2]
  AC50: > 15 µM

## CC(C)c1nn(CC(=O)Nc2ccc3nncn3c2)c(=O)cc1Nc1ccccc1 [Compound 1, 2-(4-anilino-3-isopropyl-6-oxo-pyridazin-1-yl)-N-([1,2,4]triazolo[4,3-a]pyridin-6-yl)acetamide]
[1]
  AC50: > 10 µM
[2]
  AC50: > 15 µM

## CC(C)c1nn(CC(=O)Nc2ccc3nncn3c2)c(=O)cc1N1CC[C@H](F)C1 [Compound 9]
[1]
  AC50: > 10 µM
[2]
  AC50: 2.49 µM

## CC(C)c1nn(CC(=O)Nc2ccc3nncn3c2)c(=O)cc1N1CCCC1Cc1ccccn1 (stereo not drawn) [Compound 63]
[1]
  AC50: > 20 µM
[2]
  AC50: 1.28 µM

## CC(C)c1nn(CC(=O)Nc2ccc3nncn3c2)c(=O)cc1N1CC2(COC2)C1 [Compound 50]
[1]
  AC50: > 20 µM
[2]
  AC50: > 20 µM

## CC(C)c1nn(CC(=O)Nc2ccc3nncn3c2)c(=O)cc1Nc1cc(CC2CC2)on1 [Compound 44]
[1]
  AC50: > 20 µM
[2]
  AC50: > 20 µM

## CC(C)c1nn(CC(=O)Nc2ccc3nncn3c2)c(=O)cc1N1Cc2cc(F)cnc2C1 [Compound 34]
[1]
  AC50: > 20 µM
[2]
  AC50: > 20 µM

## CC(C)c1nn(CC(=O)Nc2ccc3nncn3c2)c(=O)cc1N(C)C [Compound 30, 2-[4-(dimethylamino)-3-isopropyl-6-oxo-pyridazin-1-yl]-N-([1,2,4]triazolo[4,3-a]pyridin-6-yl)acetamide]
[1]
  AC50: > 10 µM
[2]
  AC50: > 15 µM

## CC1CN(c2cc(=O)n(CC(=O)Nc3ccc4nncn4c3)nc2C(C)C)C1 [Compound 23]
[1]
  AC50: > 10 µM
[2]
  AC50: 0.71 µM

## COC1CN(c2cc(=O)n(CC(=O)Nc3ccc4nncn4c3)nc2C(C)C)C1 [Compound 24]
[1]
  AC50: > 10 µM
[2]
  AC50: 9.87 µM

## CC(C)c1nn(CC(=O)Nc2ccc3nncn3c2)c(=O)cc1Nc1cnn(CC23CC(CO2)C3)c1 [Compound 2]
[1]
  AC50: > 10 µM
[2]
  AC50: > 15 µM

## CC(C)c1nn(CC(=O)Nc2ccc3nncn3c2)c(=O)cc1N1CC2(CCC2)C1 [Compound 49]
[1]
  AC50: 8.29 µM
[2]
  AC50: 0.76 µM

## CC(C)c1nn(CC(=O)Nc2ccc3nncn3c2)c(=O)cc1N1CC(CC(F)F)C1 [Compound 35]
[1]
  AC50: > 20 µM
[2]
  AC50: 4.36 µM

## CC(C)c1nn(CC(=O)Nc2ccc3nncn3c2)c(=O)cc1NC(C)C1CC1(F)F (stereo not drawn) [Compound 40, N-([1,2,4]triazolo[4,3-a]pyridin-6-yl)-2-(4-((1-(2,2-difluorocyclopropyl)ethyl)amino)-3-isopropyl-6-oxopyridazin-1(6H)-yl)acetamide]
[1]
  AC50: > 20 µM
[2]
  AC50: > 20 µM

## CC(C)c1nn(CC(=O)Nc2ccc3nncn3c2)c(=O)cc1N1CC(C)(O)C1 [Compound 26]
[1]
  AC50: > 10 µM
[2]
  AC50: > 15 µM

## CC(C)c1nn(CC(=O)Nc2ccc3nncn3c2)c(=O)cc1N1CCC(F)(F)C1 [Compound 13]
[1]
  AC50: > 10 µM
[2]
  AC50: 0.66 µM

## CC(C)c1nn(CC(=O)Nc2ccc3nncn3c2)c(=O)cc1N1CCC[C@@H]1Cn1ccnc1 [Compound 62]
[1]
  AC50: > 20 µM
[2]
  AC50: > 20 µM

## CC(C)c1nn(CC(=O)Nc2ccc3nncn3c2)c(=O)cc1N1CCC[C@H](C)C1 [Compound 55]
[1]
  AC50: > 20 µM
[2]
  AC50: 0.51 µM

## CC(C)c1nn(CC(=O)Nc2ccc3nncn3c2)c(=O)cc1N1CC[C@@H](F)C1 [Compound 10]
[1]
  AC50: > 10 µM
[2]
  AC50: 0.53 µM

## CC(C)c1nn(CC(=O)Nc2ccc3nncn3c2)c(=O)cc1NCC(F)c1ccccc1 (stereo not drawn) [Compound 37]
[1]
  AC50: > 20 µM
[2]
  AC50: > 20 µM

## CC(C)c1nn(CC(=O)Nc2ccc3nncn3c2)c(=O)cc1N1CCC12CCOCC2 [Compound 25]
[1]
  AC50: > 10 µM
[2]
  AC50: > 15 µM

## CCC1CCCN1c1cc(=O)n(CC(=O)Nc2ccc3nncn3c2)nc1C(C)C (stereo not drawn) [Compound 19]
[1]
  AC50: > 10 µM
[2]
  AC50: 2.61 µM

## CC(C)c1nn(CC(=O)Nc2ccc3nncn3c2)c(=O)cc1N1C2CCC1CC2 [Compound 21]
[1]
  AC50: > 10 µM
[2]
  AC50: 1.02 µM

## CO[C@H]1CCN(c2cc(=O)n(CC(=O)Nc3ccc4nncn4c3)nc2C(C)C)C1 [Compound 16]
[1]
  AC50: > 10 µM
[2]
  AC50: 11.4 µM

## CC(C)c1nn(CC(=O)Nc2ccc3nncn3c2)c(=O)cc1N1CC[C@H](N(C)C)C1 [Compound 28]
[1]
  AC50: > 10 µM
[2]
  AC50: > 15 µM

## CC(C)c1nn(CC(=O)Nc2ccc3nncn3c2)c(=O)cc1Nc1cnn(CC23CC(CO2)C3)c1C(F)(F)F [Compound 3]
[1]
  AC50: > 10 µM
[2]
  AC50: > 15 µM

## CC(C)c1nn(CC(=O)Nc2ccc3nncn3c2)c(=O)cc1N1CC2(C1)CC(F)(F)C2 [Compound 53]
[1]
  AC50: > 20 µM
[2]
  AC50: > 20 µM

## CC(C)c1nn(CC(=O)Nc2ccc3nncn3c2)c(=O)cc1N1CCCC(F)C1 (stereo not drawn) [Compound 60]
[1]
  AC50: 19.1 µM
[2]
  AC50: 1.59 µM

## CC1CC(C)CN(c2cc(=O)n(CC(=O)Nc3ccc4nncn4c3)nc2C(C)C)C1 (stereo not drawn) [Compound 56]
[1]
  AC50: 16 µM
[2]
  AC50: 0.64 µM

## CC(C)c1nn(CC(=O)Nc2ccc3nncn3c2)c(=O)cc1N1CCC(c2nccs2)C1 (stereo not drawn) [Compound 64]
[1]
  AC50: > 20 µM
[2]
  AC50: 15.1 µM

## CC(C)c1nn(CC(=O)Nc2ccc3nncn3c2)c(=O)cc1Nc1cnc(C2CC2)nc1 [Compound 39]
[1]
  AC50: > 6.67 µM
[2]
  AC50: > 6.67 µM

## CC(C)c1nn(CC(=O)Nc2ccc3nncn3c2)c(=O)cc1N1CCC(Oc2ccccn2)C1 (stereo not drawn) [Compound 59]
[1]
  AC50: 16.1 µM
[2]
  AC50: 9.92 µM

## CC(C)c1nn(CC(=O)Nc2ccc3nncn3c2)c(=O)cc1N1CCCCC1 [Compound 45, N-([1,2,4]triazolo[4,3-a]pyridin-6-yl)-2-(3-isopropyl-6-oxo-4-(piperidin-1-yl)pyridazin-1(6H)-yl)acetamide]
[1]
  AC50: > 20 µM
[2]
  AC50: 1.23 µM

## CC(C)c1nn(CC(=O)Nc2ccc3nncn3c2)c(=O)cc1N1CC[C@@H](N(C)C)C1 [Compound 27]
[1]
  AC50: > 10 µM
[2]
  AC50: > 15 µM

## CC(C)c1nn(CC(=O)Nc2ccc3nncn3c2)c(=O)cc1N1CCN(C)CC1 [Compound 48]
[1]
  AC50: > 20 µM
[2]
  AC50: > 20 µM

## CC(C)c1nn(CC(=O)Nc2ccc3nncn3c2)c(=O)cc1NCC1CC1 [Compound 29, 2-[4-(cyclopropylmethylamino)-3-isopropyl-6-oxo-pyridazin-1-yl]-N-([1,2,4]triazolo[4,3-a]pyridin-6-yl)acetamide]
[1]
  AC50: > 10 µM
[2]
  AC50: 1.53 µM

## CC(C)c1nn(CC(=O)Nc2ccc3nncn3c2)c(=O)cc1N1CCC(Cc2ccncc2)C1 (stereo not drawn) [Compound 57]
[1]
  AC50: > 20 µM
[2]
  AC50: > 20 µM

## CC(C)c1nn(CC(=O)Nc2ccc3nncn3c2)c(=O)cc1N1CCC[C@H]1CO (single isomer, unassigned) [Compound 11]
[1]
  AC50: > 10 µM
[2]
  AC50: > 15 µM

## COC[C@H]1CCCN1c1cc(=O)n(CC(=O)Nc2ccc3nncn3c2)nc1C(C)C [Compound 15]
[1]
  AC50: > 10 µM
[2]
  AC50: 16.6 µM

## CC(C)c1nn(CC(=O)Nc2ccc3nncn3c2)c(=O)cc1N1CCC2(CC1)CC2(F)F [Compound 61]
[1]
  AC50: > 20 µM
[2]
  AC50: 19.5 µM

## CC(C)c1nn(CC(=O)Nc2ccc3nncn3c2)c(=O)cc1N1CC[C@H](C)C1 [Compound 51]
[1]
  AC50: > 20 µM
[2]
  AC50: 0.42 µM

## CC(C)c1nn(CC(=O)Nc2ccc3nncn3c2)c(=O)cc1N1CCOCC1 [Compound 6]
[1]
  AC50: > 10 µM
[2]
  AC50: > 15 µM

## CC(C)c1nn(CC(=O)Nc2ccc3nncn3c2)c(=O)cc1N1CC2CC2C1 (stereo not drawn) [Compound 14]
[1]
  AC50: > 10 µM
[2]
  AC50: 0.09 µM

## CC(C)c1nn(CC(=O)Nc2ccc3nncn3c2)c(=O)cc1N(C)C1CC1 [Compound 67]
[1]
  AC50: > 20 µM
[2]
  AC50: 10.2 µM
